Measured values from the NIST ThermoML archive (doi:10.1021/acs.jced.5b00077).

What was measured:
[1] = refractive index (Na D-line) (dimensionless); settings: 101.33 kPa, Liquid, Standard Abbe refractometry
[2] = for surface tension liquid-gas: Ring tensiometer; for electrical conductivity: 101.33 kPa, Liquid, Alternating current cell with electrodes

CC(=O)[O-].[NH3+]CCCO [3-hydroxypropylammonium acetate]
Settings	electrical conductivity, [2] [S/m]	refractive index, [1]	surface tension liquid-gas, [2] [mN/m]
293.15 K	0.01	1.4663	48
298.15 K	0.01	1.4652	47.5
303.15 K	0.01	1.464	47
308.15 K	0.02	1.4628	46.5
313.15 K	0.02	1.4616	46
318.15 K	0.03	1.4605	45.5
323.15 K	0.04	1.4593	45
328.15 K	0.05	1.4581	44.5
333.15 K	0.06	1.457	44

O=C[O-].[NH3+]CCCO [3-hydroxypropylammonium formate]
Settings	electrical conductivity, [2] [S/m]	refractive index, [1]	surface tension liquid-gas, [2] [mN/m]
293.15 K	0.11	1.4678	56.9
298.15 K	0.14	1.4667	56.4
303.15 K	0.17	1.4655	55.9
308.15 K	0.21	1.4644	55.4
313.15 K	0.26	1.4632	54.9
318.15 K	0.3	1.4621	54.4
323.15 K	0.36	1.461	54
328.15 K	0.42	1.4598	53.5
333.15 K	0.49	1.4586	53

O=C([O-])C(F)(F)F.[NH3+]CCCO [3-hydroxypropylammonium trifluoroacetate]
Settings	electrical conductivity, [2] [S/m]	refractive index, [1]	surface tension liquid-gas, [2] [mN/m]
293.15 K	0.03	1.4113	38.2
298.15 K	0.04	1.4101	37.8
303.15 K	0.06	1.409	37.4
308.15 K	0.09	1.4078	37
313.15 K	0.12	1.4067	36.5
318.15 K	0.16	1.4055	36.1
323.15 K	0.2	1.4044	35.7
328.15 K	0.25	1.4032	35.3
333.15 K	0.31	1.402	34.9

CC(=O)[O-].CCC[NH3+] [propylammonium acetate]
Settings	electrical conductivity, [2] [S/m]	refractive index, [1]	surface tension liquid-gas, [2] [mN/m]
293.15 K	0.04	1.4383	33.5
298.15 K	0.06	1.4369	33.1
303.15 K	0.08	1.4356	32.7
308.15 K	0.1	1.4341	32.2
313.15 K	0.14	1.4328	31.8
318.15 K	0.17	1.4313	31.4
323.15 K	0.22	1.4301	31
328.15 K	0.27	1.4287	30.6
333.15 K	0.33	1.4273	30.2

CCC[NH3+].O=C[O-] [propylammonium formate]
Settings	electrical conductivity, [2] [S/m]	refractive index, [1]	surface tension liquid-gas, [2] [mN/m]
293.15 K	0.31	1.44	37.8
298.15 K	0.36	1.4386	37.4
303.15 K	0.44	1.4372	37
308.15 K	0.51	1.4356	36.6
313.15 K	0.59	1.4341	36.2
318.15 K	0.68	1.4326	35.8
323.15 K	0.78	1.431	35.4
328.15 K	0.87	1.4295	35
333.15 K	1	1.428	34.6
